From PMC7217150, “Synthesis, Modification, and Biological Evaluation of a Library of Novel Water‐Soluble Thiopyridone‐Based Organometallic Complexes and Their Unexpected (Biological) Behavior” (Chemistry (Weinheim an Der Bergstrasse, Germany), 2020)
Like-named read-outs stand apart in the source and are kept apart here.

What was measured:
[1] = system: SW480; assay: Cell cycle distribution, flow cytometry with propidium iodide; type: cell-based, human; details: for Cell cycle distribution G1, % / Cell cycle distribution G2/M, % / Cell cycle distribution S, %: 24 h, mean ± SD; for Relative change in cell cycle distribution G1, % / Relative change in cell cycle distribution G2/M, % / Relative change in cell cycle distribution S, %: difference to untreated control
Method: (§1) The influence of two ligands, as well as seven complexes on cell cycle distribution was tested in two of the cancer cell lines (SW480, CH1/PA‐1) by means of flow cytometry. The cell cycle distribution (G1, S, G2/M phase in %; Table S37) was investigated upon DNA staining with propidium iodide.
(§2) CH1/PA‐1 and SW480 cells were harvested by trypsinization, 8×10^4 and 1.2×10^5 cells per well were seeded into 12‐well plates, respectively. The cells were allowed to attach and resume proliferation for 24 h after the seeding. […] After continuous exposure for 24 h at 37 °C and under 5 % CO2, the cells were harvested by trypsinization and centrifuged at 300 g for 3 min. The cells were washed with PBS (1 mL) and resuspended in propidium iodine (PI) containing HSF buffer (600 μL; 0.1 % Triton X‐100, 0.1 % sodium citrate, 50 μg mL^−1 PI in PBS). After incubation overnight at 4 °C in the dark, 5×10^3 cells were measured by flow cytometry with a Millipore Guava easyCyte 8HT instrument (Luminex, USA). Data were evaluated by means of FlowJo software (Tree Star) using Watson Pragmatic algorithms.60 The fitting of the curve was chosen to keep the root mean square error between 1.0 and 2.0, alongside with good fitting visual model.

[2] = system: CH1/PA‐1; assay: as above; type: cell-based, human; details: for Cell cycle distribution G1, % / Cell cycle distribution G2/M, % / Cell cycle distribution S, %: 24 h, mean ± SD; for Relative change in cell cycle distribution G1, % / Relative change in cell cycle distribution G2/M, % / Relative change in cell cycle distribution S, %: difference to untreated control
Method: as §1, §2

[3] = system: human cancer cell lines CH1/PA‐1, SW480, A549; details: tested cancer cell lines
Method: Cytotoxicity of the compounds in monolayer cultures was determined by the colorimetric MTT assay (MTT=3‐(4,5‐dimethyl‐2‐thiazolyl)‐2,5‐diphenyl‐2H‐tetrazolium bromide). 1×10^3 CH1/PA‐1, 2×10^3 SW480 and 3×10^3 A549 cells were seeded in 100 μL supplemented MEM per well into 96‐well flat‐bottom microculture plates. […] After 96 h, the drug‐containing medium was replaced with 100 μL of RPMI 1640/MTT mixture [6 parts of RPMI 1640 medium (supplemented with 10 % heat‐inactivated fetal bovine serum and 4 mM L‐glutamine), 1 part of MTT solution in phosphate‐buffered saline (5 mg mL^−1)]. After incubation for 4 h, the mixture was replaced with 150 μL DMSO per well to dissolve the formazan product formed by viable cells. Optical densities at 550 nm (and at a reference wavelength of 690 nm) were measured with a microplate reader (ELx808, Bio‐Tek).

[4] = system: A549; assay: MTT cytotoxicity assay, monolayer culture; type: cell-based, human; details: exposure time 96 h, means ± SDs
Excerpt: (§3) A549 (non‐small cell lung carcinoma), SW480 and HCT‐116 (both colon carcinoma) were kindly provided by Brigitte Marian, Institute of Cancer Research, Department of Medicine I, Medical University of Vienna, Austria. The cell line CH1/PA‐1 (ovarian teratocarcinoma) was kindly provided by Lloyd R. Kelland (CRC Centre for Cancer Therapeutics, Institute of Cancer Research, Sutton, UK). All cell culture media (including supplements) and reagents were obtained from Sigma–Aldrich, and all plasticware from StarLab, unless indicated otherwise.

[5] = system: SW480; assay: MTT cytotoxicity assay, monolayer culture; type: cell-based, human
Excerpt: as §3

[6] = system: CH1/PA‐1; assay: MTT cytotoxicity assay, monolayer culture; type: cell-based, human; details: CH1/PA‐1, MTT assay, exposure time 96 h, means ± SDs
Excerpt: as §3

[7] = system: SW480 cells; details: ICP‐MS, 2 h exposure, 20 μM
[8] = system: A549; details: A549 multicellular spheroids, 96 h drug exposure
Method: (§4) A549, CH1/PA‐1 and SW480 cells were grown in MEM supplemented with 10 % fetal calf serum (FCS; from Biowest), 1 mM sodium pyruvate, 4 mM L‐glutamine and 1 % v/v nonessential amino acids (from 100×solution) and L‐glutamine. HCT‐116 cells were maintained in McCoy's 5a medium supplemented with 10 % FCS and L‐glutamine. Adherent monolayer cultures were grown in 75 cm^2 flasks. For spheroid culture, A549, CH1/PA‐1 and HCT‐116 cells were harvested from culture flasks by trypsinization, resuspended in their respective supplemented medium and seeded in ultra‐low attachment round‐bottom 96‐well plates (Corning Costar) at a density of 500 viable cells per well. Plates were incubated for 96 h to allow spheroid formation prior to use for the tests. All cultures were incubated in a humidified incubator at 37 °C with 5 % CO2.
(§5) Cytotoxicity in multicellular spheroids was determined by the fluorimetric resazurin assay. […] After incubation for 96 h, 20 μL of a 440 μM resazurin sodium salt solution in PBS were added to each well, and the plates were incubated for further 16 h. Fluorescence was measured with a Synergy HT reader (BioTek) with an excitation wavelength of 530 nm and emission wavelength of 590 nm. For both assays, at least three independent experiments (or two in case of poor activity) were performed, each with triplicates per concentration level, and the 50 % inhibitory concentrations (IC50) relative to untreated controls were interpolated from concentration‐effect curves.

[9] = system: HCT‐116; details: HCT‐116 multicellular spheroids, 96 h drug exposure
Method: as §4, §5

[10] = system: CH1/PA‐1; details: CH1/PA‐1 multicellular spheroids, 96 h drug exposure
Method: as §4, §5

For “Chlorido[1‐benzyl‐2‐methyl‐3‐oxo‐κO‐pyridine‐4(1H)‐thionato‐κS](η^5‐1,2,3,4,5‐pentamethylcyclopentadienyl)rhodium(III) [Compound 5 c]”, the “Cell cycle distribution G1, %” value ([1]; SW480, 2.5 µM) was 44 ± 10%, the “Cell cycle distribution G2/M, %” value ([1]; SW480, 2.5 µM) was 20 ± 6% and the “Cell cycle distribution S, %” value ([1]; SW480, 2.5 µM) was 36 ± 1%. For the same substance, the “Relative change in cell cycle distribution G1, %” value ([1]; SW480, 2.5 µM) was -4%, the “Relative change in cell cycle distribution G2/M, %” value ([1]; SW480, 2.5 µM) was 1% and the “Relative change in cell cycle distribution S, %” value ([1]; SW480, 2.5 µM) was 3%. For the same substance, the “Cell cycle distribution G1, %” value ([1]; SW480, 5 µM) was 44 ± 5%, the “Cell cycle distribution G2/M, %” value ([1]; SW480, 5 µM) was 17 ± 4% and the “Cell cycle distribution S, %” value ([1]; SW480, 5 µM) was 39 ± 1%. For the same substance, the “Relative change in cell cycle distribution G1, %” value ([1]; SW480, 5 µM) was -4%, the “Relative change in cell cycle distribution G2/M, %” value ([1]; SW480, 5 µM) was -2% and the “Relative change in cell cycle distribution S, %” value ([1]; SW480, 5 µM) was 6%. The “Cell cycle distribution G1, %” value ([1]; SW480, 10 µM) was 50 ± 2%, the “Cell cycle distribution G2/M, %” value ([1]; SW480, 10 µM) was 16 ± 5% and the “Cell cycle distribution S, %” value ([1]; SW480, 10 µM) was 34 ± 5%. For the same substance, the “Relative change in cell cycle distribution G1, %” value ([1]; SW480, 10 µM) was 2%, the “Relative change in cell cycle distribution G2/M, %” value ([1]; SW480, 10 µM) was -3% and the “Relative change in cell cycle distribution S, %” value ([1]; SW480, 10 µM) was 1%. For the same substance, the “decrease in G1 phase” value ([1]; SW480 cells, at applicable concentrations) was less than 9%, the “Cell cycle distribution G1, %” value ([2]; CH1/PA-1, 1.25 µM) was 40 ± 14% and the “Cell cycle distribution G2/M, %” value ([2]; CH1/PA-1, 1.25 µM) was 22 ± 7%. The “Cell cycle distribution S, %” value ([2]; CH1/PA-1, 1.25 µM) was 38 ± 7%, the “Relative change in cell cycle distribution G1, %” value ([2]; CH1/PA-1, 1.25 µM) was 0% and the “Relative change in cell cycle distribution G2/M, %” value ([2]; CH1/PA-1, 1.25 µM) was -2%. For the same substance, the “Relative change in cell cycle distribution S, %” value ([2]; CH1/PA-1, 1.25 µM) was 2%, the “Cell cycle distribution G1, %” value ([2]; CH1/PA-1, 2.5 µM) was 34 ± 5% and the “Cell cycle distribution G2/M, %” value ([2]; CH1/PA-1, 2.5 µM) was 24 ± 4%. For the same substance, the “Cell cycle distribution S, %” value ([2]; CH1/PA-1, 2.5 µM) was 42 ± 3%, the “Relative change in cell cycle distribution G1, %” value ([2]; CH1/PA-1, 2.5 µM) was -6% and the “Relative change in cell cycle distribution G2/M, %” value ([2]; CH1/PA-1, 2.5 µM) was 0%. The “Relative change in cell cycle distribution S, %” value ([2]; CH1/PA-1, 2.5 µM) was 6%, the “Cell cycle distribution G1, %” value ([2]; CH1/PA-1, 5 µM) was 30 ± 10% and the “Cell cycle distribution S, %” value ([2]; CH1/PA-1, 5 µM) was 42 ± 6%. The “Relative change in cell cycle distribution G1, %” value ([2]; CH1/PA-1, 5 µM) was -10%, the “Relative change in cell cycle distribution G2/M, %” value ([2]; CH1/PA-1, 5 µM) was 4% and the “Relative change in cell cycle distribution S, %” value ([2]; CH1/PA-1, 5 µM) was 6%. For the same substance, the “decrease in G1 phase” value ([2]; CH1/PA‐1 cells, 2.5 μM) was 6%, the “IC50 values, in words” value [3] was “high nanomolar range” and the IC50 [4] was 720 ± 110 nM. It also gave an IC50 ([5]; SW480, MTT assay, exposure time 96 h, means ± SDs) of 280 ± 20 nM, an IC50 ([5]; SW480, as listed in Table 3) of 280 ± 20 nM and an IC50 [6] of 370 ± 40 nM. It also gave a Cellular accumulation [7] of 855±66 fg/cell, an IC50 [8] of 79000 ± 5000 nM and an IC50 [9] of 62000 ± 1000 nM. The IC50 [10] was 59000 ± 10000 nM.
